Experimental data reported in PubChem BioAssay AID328 (DTP/NCI, 2004).
Where “and” joins values, the source holds several entries; their conditions need not be identical. Equal entries are not always repeated. Toxic doses and inconclusive results are not listed. How the source made its calls: active means survival T/C of 150% or more; inactive means T/C below 125% in these data.

Test system: BDF1 mice, P388 leukemia ip, median survival T/C
Experiment: NCI In Vivo Anticancer Drug Screen. Data for tumor model P388 Leukemia (intraperitoneal) in B6D2F1 (BDF1) mice
Conditions: endpoint: median survival time, higher = longer survival
In short: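 Mice carrying the transplantable tumour receive compound or vehicle. Survival is followed in each arm, and the treated measure is divided by the vehicle measure.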

[1] = dose: 100.0 mg/kg/injection, schedule: Q04DX003 (ip), vehicle: saline with Tween-80
[2] = dose: 200.0 mg/kg/injection, schedule: Q04DX003 (ip), vehicle: saline with Tween-80
[3] = dose: 400.0 mg/kg/injection, schedule: Q04DX003 (ip), vehicle: saline with Tween-80
[4] = dose: 100.0 mg/kg/injection, schedule: Q01DX009 (ip), vehicle: water
[5] = dose: 100.0 mg/kg/injection, schedule: Q04DX003 (ip), vehicle: water
[6] = dose: 200.0 mg/kg/injection, schedule: Q01DX009 (ip), vehicle: water
[7] = dose: 200.0 mg/kg/injection, schedule: Q04DX003 (ip), vehicle: water
[8] = dose: 400.0 mg/kg/injection, schedule: Q04DX003 (ip), vehicle: water
[9] = dose: 50.0 mg/kg/injection, schedule: Q01DX009 (ip), vehicle: saline with Tween-80
[10] = dose: 100.0 mg/kg/injection, schedule: Q01DX009 (ip), vehicle: saline with Tween-80
[11] = dose: 200.0 mg/kg/injection, schedule: Q01DX009 (ip), vehicle: saline with Tween-80

Measured: T/C

COc1ccc(CCNC(=O)Cc2ccc(OC)c(OC)c2)cc1OC
inactive: [1] 100 % of control | [2] 95 % of control | [3] 100 % of control

CN=NNc1ccccc1
inactive: dose: 66.0 mg/kg/injection, schedule: Q04DX003 (ip), vehicle: saline with Tween-80 120 % of control | dose: 75.0 mg/kg/injection, schedule: Q01DX009 (ip), vehicle: other 118 % of control | dose: 75.0 mg/kg/injection, schedule: Q04DX003 (ip), vehicle: saline with Tween-80 120 % of control | dose: 150.0 mg/kg/injection, schedule: Q04DX003 (ip), vehicle: saline with Tween-80 100 % of control | dose: 225.0 mg/kg/injection, schedule: Q04DX003 (ip), vehicle: saline with Tween-80 95 % of control | dose: 300.0 mg/kg/injection, schedule: Q04DX003 (ip), vehicle: saline with Tween-80 100 % of control

NC(=O)Nc1cc(NC(N)=O)cc(N(CCO)CCO)c1
inactive: dose: 50.0 mg/kg/injection, schedule: Q01DX009 (ip), vehicle: water 94 % of control | [4] 102 % of control | [5] 118 % of control | [6] 96 % of control | [7] 102 % of control | dose: 400.0 mg/kg/injection, schedule: Q01DX009 (ip), vehicle: water 100 % of control | [8] 102 % of control

CCOC(=O)C(c1ccccc1)c1ccccc1
inactive: dose: 100.0 mg/kg/injection, schedule: Q04DX003 (ip), vehicle: other 100 % of control | dose: 200.0 mg/kg/injection, schedule: Q04DX003 (ip), vehicle: other 95 % of control | dose: 400.0 mg/kg/injection, schedule: Q04DX003 (ip), vehicle: other 90 % of control

C#CC(O)C(CC)CCCC (stereo unspecified)
inactive: [1] 100 % of control | [2] 100 % of control | [3] 100 % of control

Cc1ccc(C(=O)CCCCl)cc1C
inactive: [1] 104 % of control | [2] 104 % of control | [3] 109 % of control

CN1CCC2=C(C1)C(c1ccccc1)c1ccccc12 (stereo unspecified)
inactive: dose: 25.0 mg/kg/injection, schedule: Q01DX009 (ip), vehicle: saline 106 % of control

O=C(/C=C/c1ccc(OCc2ccccc2)cc1)c1ccccc1Cl
inactive: [9] 96 % of control | [10] 96 % of control

CCOC(=O)N=C=O
inactive: [4] 114 % of control | [5] 96 % of control | [6] 110 % of control | [7] 99 % of control | [8] 107 % of control

Cc1cccn2c(CCc3nnc4c(C)cccn34)nnc12
inactive: [9] 97 % of control | [10] 93 % of control | [11] 89 % of control

Nc1ncnc2[nH]ncc12
inactive: dose: 1.5 mg/kg/injection, schedule: Q01DX010 (ip), vehicle: saline 90 % of control | dose: 3.0 mg/kg/injection, schedule: Q01DX010 (ip), vehicle: saline 104 % of control and 115 % of control | dose: 6.0 mg/kg/injection, schedule: Q01DX010 (ip), vehicle: saline 100 % of control | dose: 12.0 mg/kg/injection, schedule: Q01DX010 (ip), vehicle: saline 109 % of control and 110 % of control

CCN(CC)Cc1cc(Nc2ccnc3cc(Cl)ccc23)cc(-c2ccc(Cl)cc2)c1O
inactive: [9] 110 % of control | [10] 102 % of control | [11] 102 % of control

O=C(O)/C=C/C(=O)Nc1ccc(I)cc1
inactive: [9] 109 % of control | [10] 109 % of control | [11] 104 % of control
